# Source: ChEMBL document CHEMBL1221215, “A domino effect in antifolate drug action in Escherichia coli” (Nat Chem Biol, 2008)
# Calls of active or inactive are those of the source. The calls are words filed in the database; no cut-off is given here.
# Target: T1, Dihydrofolate synthase/folylpolyglutamate synthase (Escherichia coli (strain K12)) (UniProt P08192)
# T1 sequence (whole entry): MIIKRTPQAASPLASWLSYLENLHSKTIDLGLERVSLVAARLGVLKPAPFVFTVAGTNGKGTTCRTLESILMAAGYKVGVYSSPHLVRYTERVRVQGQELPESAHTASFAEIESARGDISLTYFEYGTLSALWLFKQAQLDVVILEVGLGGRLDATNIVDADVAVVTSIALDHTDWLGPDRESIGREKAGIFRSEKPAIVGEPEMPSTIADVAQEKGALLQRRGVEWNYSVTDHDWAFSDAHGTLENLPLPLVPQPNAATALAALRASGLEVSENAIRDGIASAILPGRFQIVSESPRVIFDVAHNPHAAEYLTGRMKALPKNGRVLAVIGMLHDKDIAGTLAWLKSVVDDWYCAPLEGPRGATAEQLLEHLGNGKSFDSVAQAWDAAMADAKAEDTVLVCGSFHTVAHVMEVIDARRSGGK
# Test: Inhibition of Escherichia coli K-12 recombinant His-tagged folylpoly-gamma-glutamate synthetase expressed in Escherichia coli BL21 at 200 uM LC-MS/MS method
# Conditions: NCM3722
row,Compound,inhibition
1,COc1cc(Cc2cnc(N)nc2N)cc(OC)c1OC,inactive
2,Nc1nc(=O)c2c([nH]1)NCC(CNc1ccc(C(=O)N[C@@H](CCC(=O)O)C(=O)O)cc1)=N2,Active
3,CN1c2c([nH]c(N)nc2=O)NCC1CNc1ccc(C(=O)N[C@@H](CCC(=O)O)C(=O)O)cc1 (some centres undefined),inactive
4,Nc1nc(=O)c2nc(CNc3ccc(C(=O)N[C@@H](CCC(=O)O)C(=O)O)cc3)cnc2[nH]1,inactive
